This is an account of results in patent US12331040B2 (Karyopharm Therapeutics Inc., priority 2013, dated 2025).

Common to all, as to experiment: MTT cell proliferation assay
Holding throughout (assay type): cell-based
A general note: Tetrazolium assays rely on reduction of a dye to a coloured formazan, in cell work by metabolically active cells.

One test relates to 3T3 cells. The following applies: Mus musculus, NIH3T3, approximately 64-72 hours incubation. The method in brief:
(§1)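 5,000-10,000 cells/well, overnight attach; 8 conc., 1 nM–30 μM; MTT ~4 h; formazan solubilized, OD 490 nm; % inhibition = (1−(ODo/OD))×100 vs neg. control; mostly duplicate, mean±SE.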

The next test concerns MS751 cells. Conditions: Homo sapiens, MS751, MS751 cells, approximately 64-72 hours incubation. The method in brief: as §1
Another test deals with Z138 cells. The following applies: Homo sapiens, Z-138, Z138 cells, approximately 64-72 hours incubation. The method in brief:
as §1

Where [1] appears, read: read-out: MTT Assay IC50 MS-751.
Where [2] appears, read: read-out: MTT Assay IC50, MS-751.
Setting [3] is: read-out: MTT Assay IC50, Z-138.

Where two headings read alike, the source gives them in different places. Some results are limits rather than exact numbers.

As a reminder, the IC50 is the concentration needed to halve the response being measured. For `Nc1ccc(/C=C/C(=O)NCc2cc3cccc(-c4ccc(C(=O)N5CCOCC5)cc4)c3o2)cn1` [Compound 559, (E)-3-(6-aminopyridin-3-yl)-N-((7-(4-(morpholine-4-carbonyl)phenyl)benzofuran-2-yl)methyl)acrylamide], the IC50 with 3T3 cells (read-out: MTT Assay IC50 3T3) was 0.1 to 5 µM; in the test on MS751 cells (setting [1]) it was below 0.1 µM; in the test with Z138 cells (read-out: MTT Assay IC50 Z-138), below 100 nM.

`Nc1ccc(/C=C/C(=O)NCc2cc3cc(-c4ccc(C(=O)N5CCC(F)(F)CC5)cn4)cc(-c4cc5ccccc5o4)c3o2)cn1` [Compound 668, (E)-3-(6-aminopyridin-3-yl)-N-((5′-(5-(4,4-difluoropiperidine-1-carbonyl)pyridin-2-yl)-2,7′-bibenzofuran-2′-yl)methyl)acrylamide]: the IC50 was 0.1 to 5 µM in the test on 3T3 cells (read-out: MTT Assay IC50, 3T3); below 0.1 µM with MS751 cells (setting [2]); below 100 nM with Z138 cells (setting [3]).

As to `Nc1ccc(/C=C/C(=O)NCc2cc3c(Cl)cc(-c4ccc(C(=O)N5CCC(F)(F)CC5)cc4)cc3o2)cn1` [Compound 714], the IC50 was above 10 µM in the test with 3T3 cells (read-out: MTT Assay IC50, 3T3); 0.1 to 5 µM in the test on MS751 cells (setting [2]); 100 to 5000 nM in the test on Z138 cells (setting [3]).

Turning to `CC1(F)CCN(C(=O)c2ccc(-c3cc(C(F)(F)F)c4oc(CNC(=O)/C=C/c5ccc(N)nc5)cc4c3)cc2)C1` (single isomer, unassigned) [Compound 715, (E)-3-(6-aminopyridin-3-yl)-N-((5-(4-(3-fluoro-3-methylpyrrolidine-1-carbonyl)phenyl)-7-(trifluoromethyl)benzofuran-2-yl)methyl)acrylamide], the IC50 in the test on 3T3 cells (read-out: MTT Assay IC50, 3T3) is above 10 µM; in the test on MS751 cells (setting [2]), 0.1 to 5 µM; in the test with Z138 cells (setting [3]), 100 to 5000 nM.

Regarding `Nc1ccc(/C=C/C(=O)NCc2cc3cc(-c4cccc(C(=O)N5CCOCC5)c4)cc(C(F)(F)F)c3o2)cn1` [Compound 717, (E)-3-(6-aminopyridin-3-yl)-N-((5-(3-(morpholine-4-carbonyl)phenyl)-7-(trifluoromethyl)benzofuran-2-yl)methyl)acrylamide], the IC50 in the test with 3T3 cells (read-out: MTT Assay IC50, 3T3) is above 10 µM; in the test with MS751 cells (setting [2]) it was 0.1 to 5 µM; in the test with Z138 cells (setting [3]) it was below 100 nM.

Turning to `Nc1ccc(/C=C/C(=O)NCc2cc3cc(-c4ccc(C(=O)N5CCOCC5)cn4)cc(Cl)c3o2)cn1` [Compound 560, (E)-3-(6-aminopyridin-3-yl)-N-((7-chloro-5-(5-(morpholine-4-carbonyl)pyridin-2-yl)benzofuran-2-yl)methyl)acrylamide], the values for the IC50 in the test with 3T3 cells (read-out: MTT Assay IC50 3T3), in the test on MS751 cells (setting [1]) and with Z138 cells (read-out: MTT Assay IC50 Z-138) were above 10 µM, 0.1 to 5 µM and 100 to 5000 nM, respectively.

For the compound `Nc1ccc(/C=C/C(=O)NCc2cc3cc(C4CC4C(=O)N4CCC(F)(F)CC4)cc(C(F)(F)F)c3o2)cn1` (stereo not drawn) [Compound 695, (E)-3-(6-aminopyridin-3-yl)-N-((5-(2-(4,4-difluoropiperidine-1-carbonyl)cyclopropyl)-7-(trifluoromethyl)benzofuran-2-yl)methyl)acrylamide], the IC50 was above 10 µM with 3T3 cells (read-out: MTT Assay IC50, 3T3); 0.1 to 5 µM in the test on MS751 cells (setting [2]); 100 to 5000 nM in the test on Z138 cells (setting [3]).

For the compound `Cc1noc(C)c1C(O)c1ccc(-c2cc(Cl)c3oc(CNC(=O)/C=C/c4ccc(N)nc4)cc3c2)s1` (stereo not drawn) [Compound 578, (E)-3-(6-aminopyridin-3-yl)-N-((7-chloro-5-(5-((3,5-dimethylisoxazol-4-yl)(hydroxy)methyl)thiophen-2-yl)benzofuran-2-yl)methyl)acrylamide], the IC50 was above 10 µM in the test on 3T3 cells (read-out: MTT Assay IC50 3T3), 5 to 10 µM in the test with MS751 cells (setting [1]) and 5000 to 10000 nM in the test on Z138 cells (read-out: MTT Assay IC50 Z-138).

On to `Nc1ccc(/C=C/C(=O)NCCc2cc3cc(-c4ccc(C(=O)N5CCC(F)(F)CC5)cc4)cc(C(F)(F)F)c3o2)cn1` [Compound 691, (E)-3-(6-aminopyridin-3-yl)-N-(2-(5-(4-(4,4-difluoropiperidine-1-carbonyl)phenyl)-7-(trifluoromethyl)benzofuran-2-yl)ethyl)acrylamide], for which the IC50 in the test on 3T3 cells (read-out: MTT Assay IC50, 3T3) was 0.1 to 5 µM; in the test on MS751 cells (setting [2]), 0.1 to 5 µM; in the test with Z138 cells (setting [3]), below 100 nM.

For `CC(C)(O)c1ccc(-c2cc(Cl)c3oc(CNC(=O)/C=C/c4ccc(N)nc4)cc3c2)s1` [Compound 650, (E)-3-(6-aminopyridin-3-yl)-N-((7-chloro-5-(5-(2-hydroxypropan-2-yl)thiophen-2-yl)benzofuran-2-yl)methyl)acrylamide], the IC50 was above 10 µM in the test with 3T3 cells (read-out: MTT Assay IC50 3T3), 0.1 to 5 µM with MS751 cells (setting [1]) and 100 to 5000 nM with Z138 cells (read-out: MTT Assay IC50 Z-138).

Consider `CC1(C)CN(C(=O)c2ccc(-c3cc(Cl)c4oc(CNC(=O)/C=C/c5ccc(N)nc5)cc4c3)cc2)C1` [Compound 529, (E)-3-(6-aminopyridin-3-yl)-N-((7-chloro-5-(4-(3,3-dimethylazetidine-1-carbonyl)phenyl)benzofuran-2-yl)methyl)acrylamide], for which the IC50 in the test on 3T3 cells (read-out: MTT Assay IC50 3T3) is above 10 µM; with MS751 cells (setting [1]), 5 to 10 µM; in the test on Z138 cells (read-out: MTT Assay IC50 Z-138), 100 to 5000 nM.

With `Nc1ccc(/C=C/C(=O)NCc2cc3cc(-c4ccc(C(=O)N5CCC(F)(F)CC5)cc4)cc(OC(F)(F)F)c3o2)cn1` [Compound 686, (E)-3-(6-aminopyridin-3-yl)-N-((5-(4-(4,4-difluoropiperidine-1-carbonyl)phenyl)-7-(trifluoromethoxy)benzofuran-2-yl)methyl)acrylamide], the IC50 is above 10 µM with 3T3 cells (read-out: MTT Assay IC50, 3T3); 0.1 to 5 µM with MS751 cells (setting [2]); 100 to 5000 nM in the test on Z138 cells (setting [3]).

Consider `Nc1ccc(/C=C/C(=O)NCc2cc3cc(-c4cc(C(=O)N5CCOCC5)c(F)cn4)cc(Cl)c3o2)cn1` [Compound 588, (E)-3-(6-aminopyridin-3-yl)-N-((7-chloro-5-(5-fluoro-4-(morpholine-4-carbonyl)pyridin-2-yl)benzofuran-2-yl)methyl)acrylamide], for which the IC50 is 0.1 to 5 µM in the test with 3T3 cells (read-out: MTT Assay IC50 3T3), below 0.1 µM in the test with MS751 cells (setting [1]) and below 100 nM with Z138 cells (read-out: MTT Assay IC50 Z-138).

With `Cc1noc(-c2ccc(F)cc2)c1-c1cc(C(F)(F)F)c2oc(CNC(=O)/C=C/c3ccc(N)nc3)cc2c1` [Compound 648, (E)-3-(6-aminopyridin-3-yl)-N-((5-(5-(4-fluorophenyl)-3-methylisoxazol-4-yl)-7-(trifluoromethyl)benzofuran-2-yl)methyl)acrylamide], the figures for the IC50 in the test with 3T3 cells (read-out: MTT Assay IC50 3T3), with MS751 cells (setting [1]) and in the test with Z138 cells (read-out: MTT Assay IC50 Z-138) were above 10 µM, 0.1 to 5 µM and 100 to 5000 nM, respectively.

Turning to `Nc1ccc(/C=C/C(=O)NCc2cc3cc(-c4ccc(C(=O)N5CCC(F)(F)CC5)cc4)cc(-c4cc(Cl)c(F)cc4F)c3o2)cn1` [Compound 698, (E)-3-(6-aminopyridin-3-yl)-N-((7-(5-chloro-2,4-difluorophenyl)-5-(4-(4,4-difluoropiperidine-1-carbonyl)phenyl)benzofuran-2-yl)methyl)acrylamide], the IC50 in the test with 3T3 cells (read-out: MTT Assay IC50, 3T3) is 0.1 to 5 µM; in the test on MS751 cells (setting [2]), below 0.1 µM; in the test with Z138 cells (setting [3]), below 100 nM.

In the case of `Nc1ccc(/C=C/C(=O)NCc2cc3cc(-c4ccc(C(=O)N5CCOCC5)c(F)c4F)cc(Cl)c3o2)cn1` [Compound 548, (E)-3-(6-aminopyridin-3-yl)-N-((7-chloro-5-(2,3-difluoro-4-(morpholine-4-carbonyl)phenyl)benzofuran-2-yl)methyl)acrylamide], the IC50 is above 10 µM with 3T3 cells (read-out: MTT Assay IC50 3T3), 0.1 to 5 µM with MS751 cells (setting [1]) and 100 to 5000 nM with Z138 cells (read-out: MTT Assay IC50 Z-138).

As for `Nc1ccc(/C=C/C(=O)NCc2cc3cc(-c4ccc5occc5c4)cc(-c4ccc(F)cc4F)c3o2)cn1` [Compound 759, (E)-3-(6-aminopyridin-3-yl)-N-((7-(2,4-difluorophenyl)-5,5′-bibenzofuran-2-yl)methyl)acrylamide], the IC50 with 3T3 cells (read-out: MTT Assay IC50, 3T3) is above 10 µM; in the test with MS751 cells (setting [2]) it was 0.1 to 5 µM; in the test with Z138 cells (setting [3]), below 100 nM.

As for `Nc1ccc(/C=C/C(=O)NCc2cc3cc(-c4ccc(C(=O)NNc5cnccn5)cc4)cc(Cl)c3o2)cn1` [Compound 505, (E)-3-(6-aminopyridin-3-yl)-N-((7-chloro-5-(4-(2-(pyrazin-2-yl)hydrazine-1-carbonyl)phenyl)benzofuran-2-yl)methyl)acrylamide], the IC50 with 3T3 cells (read-out: MTT Assay IC50 3T3) is above 10 µM; with MS751 cells (setting [1]) it was 0.1 to 5 µM; with Z138 cells (read-out: MTT Assay IC50 Z-138), 100 to 5000 nM.

Turning to `Nc1ccc(/C=C/C(=O)NCc2cc3cc(-c4ccc(C(=O)N5CCNCC5)cn4)cc(C(F)(F)F)c3o2)cn1` [Compound 577, (E)-3-(6-aminopyridin-3-yl)-N-((5-(5-(piperazine-1-carbonyl)pyridin-2-yl)-7-(trifluoromethyl)benzofuran-2-yl)methyl)acrylamide], the IC50 was above 10 µM in the test on 3T3 cells (read-out: MTT Assay IC50 3T3), below 0.1 µM with MS751 cells (setting [1]) and below 100 nM in the test with Z138 cells (read-out: MTT Assay IC50 Z-138).

Turning to `Nc1ccc(/C=C/C(=O)NCc2cc3cc(-c4ccc(C(=O)N5CC(F)C5)cc4)cc(C(F)(F)F)c3o2)cn1` [Compound 524, (E)-3-(6-aminopyridin-3-yl)-N-((5-(4-(3-fluoroazetidine-1-carbonyl)phenyl)-7-(trifluoromethyl)benzofuran-2-yl)methyl)acrylamide], the IC50 was above 10 µM in the test with 3T3 cells (read-out: MTT Assay IC50 3T3), 0.1 to 5 µM in the test on MS751 cells (setting [1]) and 100 to 5000 nM in the test with Z138 cells (read-out: MTT Assay IC50 Z-138).

With `Nc1ccc(/C=C/C(=O)NCc2cc3cc(-c4ccc(C(=O)N5CCC(O)(C(F)(F)F)CC5)cc4)cc(C(F)(F)F)c3o2)cn1` [Compound 609, (E)-3-(6-aminopyridin-3-yl)-N-((5-(4-(4-hydroxy-4-(trifluoromethyl)piperidine-1-carbonyl)phenyl)-7-(trifluoromethyl)benzofuran-2-yl)methyl)acrylamide], the IC50 with 3T3 cells (read-out: MTT Assay IC50 3T3) was above 10 µM; in the test with MS751 cells (setting [1]) it was 0.1 to 5 µM; with Z138 cells (read-out: MTT Assay IC50 Z-138) it was 100 to 5000 nM.

In the case of `NC(=O)c1ccc(-c2cc(Cl)c3oc(CNC(=O)/C=C/c4ccc(N)nc4)cc3c2)cc1` [Compound 506, (E)-4-(2-((3-(6-aminopyridin-3-yl)acrylamido)methyl)-7-chlorobenzofuran-5-yl)benzamide], the IC50 is above 10 µM in the test with 3T3 cells (read-out: MTT Assay IC50 3T3), 5 to 10 µM with MS751 cells (setting [1]) and 100 to 5000 nM in the test on Z138 cells (read-out: MTT Assay IC50 Z-138).
